Test results reported in paper PMC6862253, “Synthesis and Evaluation of Anticancer Activity of New 4-Acyloxy Derivatives of Robustic Acid” (International Journal of Molecular Sciences, 2019).
Values belong to the molecule of their own block, whether it stands above or below them.

Tests used:
[1] = system: human normal lung epithelial cells BEAS-2B; experiment: MTS cytotoxicity assay, normal BEAS-2B cells; assay type: cell-based; details: 48 h, mean ± SD
Protocol: (§1) The MTS (3-(4,5-dimethylthiazole-2-yl)-5-(3-carboxymethoxyphenyl)-2-(4-sulfophenyl)-2H- tetrazolium) (Promega, Madison, WI, USA) assay was used to determine the IC50 value for all compounds, according to [26]. We used a panel of five human carcinoma cell lines and two normal cells including HL-60, A549, SMMC-7721, HepG2, Hela, LO2 and BEAS-2B. Cells were seeded in 96-well plates at a density of 3 × 10^3–1.5 × 10^4 cells/well in 100 μL medium (DMEM or RMPI1640) and incubated for 12–24 h at 37 °C. Subsequently, cells were exposed to drugs in an additional 100 μL medium and were further incubated at 37 °C for 48 h. In brief, 100 μL MTS reagent supplement with 100 μL medium was added directly to the wells and cells were incubated at 37 °C for a minimum of 2 h. Colorimetric measurements were recorded at 492 nm. Background absorbance was corrected using triplicate sets of wells[…] containing medium only (no cells), and MTS reagent was added per experimental well. Each experiment was performed at least three times, and values in results are represented as mean ± SD.

[2] = system: human leukemic cells HL-60; experiment: MTS anti-proliferative assay, HL-60; assay type: cell-based; details: mean ± SD
Protocol: as §1

[3] = system: human hepatocellular carcinoma cells HepG2; experiment: MTS anti-proliferative assay, HepG2; assay type: cell-based; details: mean ± SD
Protocol: as §1

[4] = system: human normal liver cells LO2; experiment: MTS cytotoxicity assay, normal LO2 cells; assay type: cell-based; details: mean ± SD
Protocol: as §1

[5] = system: human hepatic carcinoma cells SMMC-7721; experiment: MTS anti-proliferative assay, SMMC-7721; assay type: cell-based; details: mean ± SD
Protocol: as §1

[6] = system: human non-small cell lung carcinoma cells A-549; experiment: MTS anti-proliferative assay, A-549; assay type: cell-based; details: mean ± SD
Protocol: as §1

[7] = system: human cervical carcinoma cells Hela; experiment: MTS anti-proliferative assay, Hela; assay type: cell-based; details: 48 h, mean ± SD
Protocol: as §1

[8] = target: T1, DNA topoisomerase I (Topo I) (Bos taurus, UniProt F1MN93); experiment: Topo I inhibitory activity, supercoiled DNA unwinding, agarose gel; assay type: biochemical
T1 construct: purchased Takara Bio Inc
T1 sequence (F1MN93 1-767): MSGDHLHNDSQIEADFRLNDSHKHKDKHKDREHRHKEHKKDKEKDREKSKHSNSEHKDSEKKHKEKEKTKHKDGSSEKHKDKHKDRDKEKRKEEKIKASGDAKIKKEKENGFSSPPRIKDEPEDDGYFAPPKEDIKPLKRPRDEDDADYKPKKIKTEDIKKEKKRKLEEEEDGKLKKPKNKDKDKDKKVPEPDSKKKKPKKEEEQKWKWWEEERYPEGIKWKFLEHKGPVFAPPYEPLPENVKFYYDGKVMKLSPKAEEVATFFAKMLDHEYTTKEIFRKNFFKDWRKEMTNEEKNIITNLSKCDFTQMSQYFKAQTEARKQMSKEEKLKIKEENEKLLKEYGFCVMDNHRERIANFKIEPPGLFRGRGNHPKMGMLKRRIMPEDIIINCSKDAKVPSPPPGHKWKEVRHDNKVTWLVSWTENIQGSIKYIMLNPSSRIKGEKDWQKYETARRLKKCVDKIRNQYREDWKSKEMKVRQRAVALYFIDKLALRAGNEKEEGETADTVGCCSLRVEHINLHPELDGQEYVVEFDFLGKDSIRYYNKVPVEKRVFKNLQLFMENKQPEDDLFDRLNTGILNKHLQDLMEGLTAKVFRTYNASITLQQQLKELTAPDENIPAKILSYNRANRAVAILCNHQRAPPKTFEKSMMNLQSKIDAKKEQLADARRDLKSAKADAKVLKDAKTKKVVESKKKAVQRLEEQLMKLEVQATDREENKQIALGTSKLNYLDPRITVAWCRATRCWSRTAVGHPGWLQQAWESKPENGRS
From the text: DNA Topo I is an important enzyme in all living organisms, and it participates in many cellular metabolic processes, such as replication, transcription, recombination, and repair. DNA Topo I has been established as a molecular target of anticancer drugs. A combined study of synthesis and docking for the anti-cancer activity of novel coumarins concluded that coumarin derivatives are potent cytotoxic agents. […] Currently, discovering novel non-camptothecin inhibitors for DNA Topo I has become an important area of research. Thus, a DNA Topo I inhibitory activity assay was also carried out using the supercoiled DNA unwinding method in this study. […] Therefore, compounds 2d, 2g, and 2i were selected for further quantitative investigation (depicted in Figure 5B). […] This correlates well with the cytotoxicity to HL-60, A-549, and SMMC-7721 cells. Thus, we infer that the anti-proliferative activity of 4-acyloxy derivatives of RA to these three cells may be related to Topo I. Supercoiled […] DNA was used as a substrate to determine the Topo I catalytic activity. Commercial samples of Topo I and pBR322 were obtained from Takara Bio Inc. The buffer solutions were prepared using 500 mM KAc, 200 mM Tris-Ac, 100 mM Mg(Ac)2, and 1 mg/mL BSA. The procedure used for determination of enzyme inhibitory activity was similar to one reported by Xu et al..

melting point: 239.5 to 241.9 °C
SMILES: COC1=c2c(OC(=O)c3ccc([N+](=O)[O-])cc3)c(-c3ccc(OC)cc3)c(=O)oc2=CC2OC(C)(C)C=CC12 (centres unmarked) [Compound 2g, 4-O-(p-Nitrobenzoyl)robustic acid]

melting point: 171.5 to 182.3 °C
SMILES: COC1=c2c(OC(=O)c3cccs3)c(-c3ccc(OC)cc3)c(=O)oc2=CC2OC(C)(C)C=CC12 (centres unmarked) [Compound 2e, 4-O-Thenoyl robustic acid]

melting point: 189.9 to 192.1 °C
SMILES: COC1=c2c(OC(C)=O)c(-c3ccc(OC)cc3)c(=O)oc2=CC2OC(C)(C)C=CC12 (centres unmarked) [Compound 2j, 4-O-Acetylrobustic acid]

SMILES: CC[C@@]1(O)C(=O)OCc2c1cc1n(c2=O)Cc2cc3ccccc3nc2-1 [CPT, camptothecin]
IC50 ([1]; Homo sapiens, BEAS-2B): 2.16 ± 0.47 µM | IC50 ([2]; Homo sapiens, HL-60, 48 h): 12.2 ± 1.06 µM | IC50 ([3]; Homo sapiens, HepG2, 48 h): 1.3 ± 0.62 µM | IC50 ([4]; Homo sapiens, L02, 48 h): 30 ± 2 nM | IC50 ([5]; Homo sapiens, SMMC-7721, 48 h): 18.9 ± 4.12 µM | IC50 ([6]; Homo sapiens, A549, 48 h): 15.3 ± 1.22 µM | IC50 ([7]; Homo sapiens, HeLa): 0.5 ± 0.08 µM

melting point: 250.8 to 251.9 °C
SMILES: COC1=c2c(OC(=O)c3ccc(Br)cc3F)c(-c3ccc(OC)cc3)c(=O)oc2=CC2OC(C)(C)C=CC12 (centres unmarked) [Compound 2i, 4-O-(4-Bromo-2-fluorobenzoyl) robustic acid]

melting point: 236.8 to 239.6 °C | IC50 ([2]; Homo sapiens, HL-60, 48 h): > 100 µM | IC50 ([3]; Homo sapiens, HepG2, 48 h): 87.3 ± 2.14 µM | IC50 ([5]; Homo sapiens, SMMC-7721, 48 h): 66.2 ± 5.7 µM | IC50 ([6]; Homo sapiens, A549, 48 h): > 100 µM | Topo I inhibitory activity ([8]; gel electrophoresis): moderate inhibitory activities | IC50 ([7]; Homo sapiens, HeLa): 65.1 ± 1.27 µM
SMILES: COc1ccc(-c2c(OC(=O)c3ccc(F)cc3)c3c(OC)c4c(cc3oc2=O)OC(C)(C)C=C4)cc1 [Compound 2f, 4-O-(p-Fluorobenzoyl)robustic acid]
IC50 ([1]; Homo sapiens, BEAS-2B): > 100 µM | IC50 ([4]; Homo sapiens, L02, 48 h): > 100000 nM

SMILES: N.N.[Cl][Pt][Cl] [cisplatin]
IC50 [1]: 57.7 ± 3.1 µM | IC50 ([2]; 48 h): 14.2 ± 0.56 µM | IC50 ([3]; 48 h): 10.6 ± 1.4 µM | IC50 ([4]; 48 h): < 8 nM | IC50 ([5]; 48 h): 1.32 ± 0.97 µM | IC50 ([6]; 48 h): 25.4 ± 1.06 µM | IC50 [7]: 5.83 ± 0.14 µM

melting point: 225.6 to 228.5 °C
SMILES: COC1=c2c(OC(=O)c3ccc(C(F)(F)F)cc3)c(-c3ccc(OC)cc3)c(=O)oc2=CC2OC(C)(C)C=CC12 (centres unmarked) [Compound 2d, 4-O-(p-Trifluoromethylbenzoyl)robustic acid]

melting point: 266.4 to 273.4 °C
SMILES: COC1=c2c(OC(=O)c3ccccc3)c(-c3ccc(OC)cc3)c(=O)oc2=CC2OC(C)(C)C=CC12 (centres unmarked) [Compound 2a, 4-O-Benzoyl-robustic acid]

IC50 ([2]; Homo sapiens, HL-60, 48 h): > 100 µM | IC50 ([3]; Homo sapiens, HepG2, 48 h): > 100 µM | IC50 ([5]; Homo sapiens, SMMC-7721, 48 h): > 100 µM | IC50 ([6]; Homo sapiens, A549, 48 h): > 100 µM | Topo I inhibitory activity ([8]; concentrations lower than 10 mM): no inhibitory activity was found | IC50 ([7]; Homo sapiens, HeLa): > 100 µM
SMILES: COc1ccc(-c2c(O)c3c(OC)c4c(cc3oc2=O)OC(C)(C)C=C4)cc1 [RA, robustic acid]
IC50 ([1]; Homo sapiens, BEAS-2B): > 100 µM | IC50 ([4]; Homo sapiens, L02, 48 h): > 100000 nM

melting point: 246.9 to 250.2 °C
SMILES: CCc1ccc(C(=O)Oc2c(-c3ccc(OC)cc3)c(=O)oc3c2=C(OC)C2C=CC(C)(C)OC2C=3)cc1 (centres unmarked) [Compound 2h, 4-O-(p-Ethylbenzoyl)robustic acid]
